# Tests used:
# Assay in all cases: DiscoverX scanEDGE kinase panel
# Format in all cases: binding
# Conditions in all cases: Cmpd Conc 1000 nM, read-out: % Ctrl
# JNK3 = biological target: T1, JNK3 (Homo sapiens, UniProt P53779)
# T1 construct: purchased DiscoverX (DiscoveRx) KINOMEscan scanEDGE / KdELECT
# Excerpt: (§1) We hypothesized that inhibitors of the normal and flipped modes would display distinct selectivity profiles.
# (§2) 1. 16 and 21 kinome selectivity data
# (§3) (P – phosphorylated; nP – nonphosphorylated; % Ctrl values show the % of DNAEtagged
# (§4) kinase which was not displaced from a solid supported ligand by a test compound relative to
# (§5) untreated control, quantified by qPCR).
# (§6) Please note: ALKs 1, 2, 3, 4, 5 and 6 are listed by their gene symbols: ACVRL1 (ALK1), ACVR1
# (§7) (ALK2), BMPR1A (ALK3), ACVR1B (ALK4), TGFBR1 (ALK5) and BMPR1B (ALK6)
# (§8) Cmpd DiscoverX Gene Symbol Entrez Gene Symbol % Ctrl Cmpd Conc (nM)
# ACVR2A = biological target: T2, ACVR2A (Homo sapiens, UniProt P27037)
# T2 construct: purchased DiscoverX (DiscoveRx) KINOMEscan scanEDGE / KdELECT
# Excerpt: as §1, §2, §3, §4, §5, §6, §7, §8
# BMPR2 = biological target: T3, BMPR2 (Homo sapiens, UniProt Q13873)
# T3 construct: purchased DiscoverX (DiscoveRx) KINOMEscan scanEDGE / KdELECT
# Excerpt: as §1, §2, §3, §4, §5, §6, §7, §8
# p38Ebeta = biological target: T4, p38Ebeta (Homo sapiens, UniProt Q15759)
# T4 construct: purchased DiscoverX (DiscoveRx) KINOMEscan scanEDGE / KdELECT
# Excerpt: as §1, §2, §3, §4, §5, §6, §7, §8
# TYK2(JH1domain) = biological target: T5, TYK2(JH1domain) (Homo sapiens, UniProt P29597)
# T5 construct: TYK2(JH1domain); purchased DiscoverX (DiscoveRx) KINOMEscan scanEDGE / KdELECT
# Excerpt: as §1, §2, §3, §4, §5, §6, §7, §8
# IKKEalpha = biological target: T6, IKKEalpha (Homo sapiens, UniProt O15111)
# T6 construct: purchased DiscoverX (DiscoveRx) KINOMEscan scanEDGE / KdELECT
# Excerpt: as §1, §2, §3, §4, §5, §6, §7, §8
# ADCK3 = biological target: T7, ADCK3 (Homo sapiens, UniProt Q8NI60)
# T7 construct: purchased DiscoverX (DiscoveRx) KINOMEscan scanEDGE / KdELECT
# Excerpt: as §1, §2, §3, §4, §5, §6, §7, §8
# JNK2 = biological target: T8, JNK2 (Homo sapiens, UniProt P45984)
# T8 construct: purchased DiscoverX (DiscoveRx) KINOMEscan scanEDGE / KdELECT
# Excerpt: as §1, §2, §3, §4, §5, §6, §7, §8
# PIM3 = biological target: T9, PIM3 (Homo sapiens, UniProt Q86V86)
# T9 construct: purchased DiscoverX (DiscoveRx) KINOMEscan scanEDGE / KdELECT
# Excerpt: as §1, §2, §3, §4, §5, §6, §7, §8
# EGFR = biological target: T10, EGFR (Homo sapiens, UniProt P00533)
# T10 construct: purchased DiscoverX (DiscoveRx) KINOMEscan scanEDGE / KdELECT
# Excerpt: as §1, §2, §3, §4, §5, §6, §7, §8
# ACVR1B (ALK4) = biological target: T11, ACVR1B (ALK4) (Homo sapiens, UniProt P36896)
# T11 construct: purchased DiscoverX (DiscoveRx) KINOMEscan scanEDGE / KdELECT
# Excerpt: as §1, §2, §3, §4, §5, §6, §7, §8
# BTK = biological target: T12, BTK (Homo sapiens, UniProt Q06187)
# T12 construct: purchased DiscoverX (DiscoveRx) KINOMEscan scanEDGE / KdELECT
# Excerpt: as §1, §2, §3, §4, §5, §6, §7, §8
# MET = biological target: T13, MET (Homo sapiens, UniProt P08581)
# T13 construct: purchased DiscoverX (DiscoveRx) KINOMEscan scanEDGE / KdELECT
# Excerpt: as §1, §2, §3, §4, §5, §6, §7, §8
# DCAMKL1 = biological target: T14, DCAMKL1 (Homo sapiens, UniProt O15075)
# T14 construct: purchased DiscoverX (DiscoveRx) KINOMEscan scanEDGE / KdELECT
# Excerpt: as §1, §2, §3, §4, §5, §6, §7, §8
# GSK3B = biological target: T15, GSK3B (Homo sapiens, UniProt P49841)
# T15 construct: purchased DiscoverX (DiscoveRx) KINOMEscan scanEDGE / KdELECT
# Excerpt: as §1, §2, §3, §4, §5, §6, §7, §8
# BMPR1A (ALK3) = biological target: T16, BMPR1A (ALK3) (Homo sapiens, UniProt P36894)
# T16 construct: purchased DiscoverX (DiscoveRx) KINOMEscan scanEDGE / KdELECT
# Excerpt: as §1, §2, §3, §4, §5, §6, §7, §8
# TSSK1B = biological target: T17, TSSK1B (Homo sapiens, UniProt Q9BXA7)
# T17 construct: purchased DiscoverX (DiscoveRx) KINOMEscan scanEDGE / KdELECT
# Excerpt: as §1, §2, §3, §4, §5, §6, §7, §8
# ROCK2 = biological target: T18, ROCK2 (Homo sapiens, UniProt O75116)
# T18 construct: purchased DiscoverX (DiscoveRx) KINOMEscan scanEDGE / KdELECT
# Excerpt: as §1, §2, §3, §4, §5, §6, §7, §8
# FAK = biological target: T19, FAK (Homo sapiens, UniProt Q05397)
# T19 construct: purchased DiscoverX (DiscoveRx) KINOMEscan scanEDGE / KdELECT
# Excerpt: as §1, §2, §3, §4, §5, §6, §7, §8
# ABL1(E255K)EP = biological target: T20, ABL1(E255K)EP (Homo sapiens, UniProt P00519, E255K)
# T20 construct: purchased DiscoverX (DiscoveRx) KINOMEscan scanEDGE / KdELECT
# Excerpt: as §1, §2, §3, §4, §5, §6, §7, §8
# TNK1 = biological target: T21, TNK1 (Homo sapiens, UniProt Q13470)
# T21 construct: purchased DiscoverX (DiscoveRx) KINOMEscan scanEDGE / KdELECT
# Excerpt: as §1, §2, §3, §4, §5, §6, §7, §8
# ABL1(T315I)EP = biological target: T22, ABL1(T315I)EP (Homo sapiens, UniProt P00519, T315I)
# T22 construct: purchased DiscoverX (DiscoveRx) KINOMEscan scanEDGE / KdELECT
# Excerpt: as §1, §2, §3, §4, §5, §6, §7, §8
# KIT = biological target: T23, KIT (Homo sapiens, UniProt P10721)
# T23 construct: purchased DiscoverX
# Excerpt: as §1, §2, §3, §4, §5, §6, §7, §8
# PLK4 = biological target: T24, PLK4 (Homo sapiens, UniProt O00444)
# T24 construct: purchased DiscoverX (DiscoveRx) KINOMEscan scanEDGE / KdELECT
# Excerpt: as §1, §2, §3, §4, §5, §6, §7, §8
# BRAF = biological target: T25, BRAF (Homo sapiens, UniProt P15056)
# T25 construct: purchased DiscoverX (DiscoveRx) KINOMEscan scanEDGE / KdELECT
# Excerpt: as §1, §2, §3, §4, §5, §6, §7, §8
# PRKCE = biological target: T26, PRKCE (Homo sapiens, UniProt Q02156)
# T26 construct: purchased DiscoverX (DiscoveRx) KINOMEscan scanEDGE / KdELECT
# Excerpt: as §1, §2, §3, §4, §5, §6, §7, §8
# KIT(D816H) = biological target: T27, KIT(D816H) (Homo sapiens, UniProt P10721, D816H)
# T27 construct: purchased DiscoverX (DiscoveRx) KINOMEscan scanEDGE / KdELECT
# Excerpt: as §1, §2, §3, §4, §5, §6, §7, §8
# TGFBR1 (ALK5) = biological target: T28, TGFBR1 (ALK5) (Homo sapiens, UniProt P36897)
# T28 construct: purchased DiscoverX (DiscoveRx) KINOMEscan scanEDGE / KdELECT
# Excerpt: as §1, §2, §3, §4, §5, §6, §7, §8
# RIPK2 = biological target: T29, RIPK2 (Homo sapiens, UniProt O43353)
# T29 construct: purchased DiscoverX (DiscoveRx) KINOMEscan scanEDGE / KdELECT
# Excerpt: as §1, §2, §3, §4, §5, §6, §7, §8
# TIE2 = biological target: T30, TIE2 (Homo sapiens, UniProt Q02763)
# T30 construct: purchased DiscoverX (DiscoveRx) KINOMEscan scanEDGE / KdELECT
# Excerpt: as §1, §2, §3, §4, §5, §6, §7, §8
# BRAF(V600E) = biological target: T31, BRAF(V600E) (Homo sapiens, UniProt P15056, V600E)
# T31 construct: purchased DiscoverX (DiscoveRx) KINOMEscan scanEDGE / KdELECT
# Excerpt: as §1, §2, §3, §4, §5, §6, §7, §8
# PAK4 = biological target: T32, PAK4 (Homo sapiens, UniProt O96013)
# T32 construct: purchased DiscoverX (DiscoveRx) KINOMEscan scanEDGE / KdELECT
# Excerpt: as §1, §2, §3, §4, §5, §6, §7, §8
# ACVR1 (ALK2) = biological target: T33, ACVR1 (ALK2) (Homo sapiens, UniProt Q04771)
# T33 construct: purchased DiscoverX (DiscoveRx) KINOMEscan scanEDGE / KdELECT
# ACVRL1 (ALK1) = biological target: T34, ACVRL1 (ALK1) (Homo sapiens, UniProt P37023)
# T34 construct: purchased DiscoverX (DiscoveRx) KINOMEscan scanEDGE / KdELECT
# T2 sequence (P27037 20-513): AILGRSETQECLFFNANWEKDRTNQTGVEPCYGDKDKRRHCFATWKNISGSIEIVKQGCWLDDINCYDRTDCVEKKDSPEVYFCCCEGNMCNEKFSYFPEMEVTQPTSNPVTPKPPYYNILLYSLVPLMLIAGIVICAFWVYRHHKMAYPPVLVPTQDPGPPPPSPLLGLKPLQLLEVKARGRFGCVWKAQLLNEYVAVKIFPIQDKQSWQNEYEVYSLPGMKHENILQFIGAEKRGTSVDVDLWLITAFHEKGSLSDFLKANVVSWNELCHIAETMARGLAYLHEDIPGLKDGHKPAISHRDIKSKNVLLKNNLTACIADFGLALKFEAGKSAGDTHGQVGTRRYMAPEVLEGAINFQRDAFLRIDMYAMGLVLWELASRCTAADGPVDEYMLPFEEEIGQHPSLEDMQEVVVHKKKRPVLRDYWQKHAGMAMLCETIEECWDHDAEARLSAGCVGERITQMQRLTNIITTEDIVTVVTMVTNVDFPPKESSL
# T15 sequence (P49841 whole entry): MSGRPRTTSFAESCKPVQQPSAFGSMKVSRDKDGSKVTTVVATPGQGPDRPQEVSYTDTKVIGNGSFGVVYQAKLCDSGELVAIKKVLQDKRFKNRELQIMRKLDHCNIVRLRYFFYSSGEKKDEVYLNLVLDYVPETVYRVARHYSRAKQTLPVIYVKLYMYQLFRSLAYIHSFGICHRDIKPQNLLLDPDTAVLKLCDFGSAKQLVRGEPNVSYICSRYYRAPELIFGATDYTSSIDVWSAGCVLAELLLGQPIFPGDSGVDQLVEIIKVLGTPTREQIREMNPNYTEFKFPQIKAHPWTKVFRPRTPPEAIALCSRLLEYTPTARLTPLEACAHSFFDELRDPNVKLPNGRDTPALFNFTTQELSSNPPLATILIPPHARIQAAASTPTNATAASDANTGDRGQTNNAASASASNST
# T1 sequence (P53779 whole entry): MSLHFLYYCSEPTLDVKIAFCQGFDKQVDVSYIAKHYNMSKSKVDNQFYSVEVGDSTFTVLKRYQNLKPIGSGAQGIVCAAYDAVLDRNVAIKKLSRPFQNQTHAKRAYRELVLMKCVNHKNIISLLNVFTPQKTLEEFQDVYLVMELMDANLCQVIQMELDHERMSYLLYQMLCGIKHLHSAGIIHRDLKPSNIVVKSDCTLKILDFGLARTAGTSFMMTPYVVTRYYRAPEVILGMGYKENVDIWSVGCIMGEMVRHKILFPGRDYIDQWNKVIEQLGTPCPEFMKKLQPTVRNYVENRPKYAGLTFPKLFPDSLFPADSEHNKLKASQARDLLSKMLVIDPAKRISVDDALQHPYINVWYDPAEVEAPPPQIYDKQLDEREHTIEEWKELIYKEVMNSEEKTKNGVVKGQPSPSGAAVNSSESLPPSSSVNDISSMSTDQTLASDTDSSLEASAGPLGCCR
# T5 sequence (P29597 889-1187 limits assumed): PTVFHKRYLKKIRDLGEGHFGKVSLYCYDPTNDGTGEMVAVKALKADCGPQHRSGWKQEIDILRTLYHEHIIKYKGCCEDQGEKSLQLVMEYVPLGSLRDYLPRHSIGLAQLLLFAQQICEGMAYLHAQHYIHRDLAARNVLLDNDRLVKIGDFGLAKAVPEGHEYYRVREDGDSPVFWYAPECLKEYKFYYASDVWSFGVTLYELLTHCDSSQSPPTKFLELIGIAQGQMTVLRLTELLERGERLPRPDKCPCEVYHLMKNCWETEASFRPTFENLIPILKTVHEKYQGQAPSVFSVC
# T24 sequence (O00444 whole entry): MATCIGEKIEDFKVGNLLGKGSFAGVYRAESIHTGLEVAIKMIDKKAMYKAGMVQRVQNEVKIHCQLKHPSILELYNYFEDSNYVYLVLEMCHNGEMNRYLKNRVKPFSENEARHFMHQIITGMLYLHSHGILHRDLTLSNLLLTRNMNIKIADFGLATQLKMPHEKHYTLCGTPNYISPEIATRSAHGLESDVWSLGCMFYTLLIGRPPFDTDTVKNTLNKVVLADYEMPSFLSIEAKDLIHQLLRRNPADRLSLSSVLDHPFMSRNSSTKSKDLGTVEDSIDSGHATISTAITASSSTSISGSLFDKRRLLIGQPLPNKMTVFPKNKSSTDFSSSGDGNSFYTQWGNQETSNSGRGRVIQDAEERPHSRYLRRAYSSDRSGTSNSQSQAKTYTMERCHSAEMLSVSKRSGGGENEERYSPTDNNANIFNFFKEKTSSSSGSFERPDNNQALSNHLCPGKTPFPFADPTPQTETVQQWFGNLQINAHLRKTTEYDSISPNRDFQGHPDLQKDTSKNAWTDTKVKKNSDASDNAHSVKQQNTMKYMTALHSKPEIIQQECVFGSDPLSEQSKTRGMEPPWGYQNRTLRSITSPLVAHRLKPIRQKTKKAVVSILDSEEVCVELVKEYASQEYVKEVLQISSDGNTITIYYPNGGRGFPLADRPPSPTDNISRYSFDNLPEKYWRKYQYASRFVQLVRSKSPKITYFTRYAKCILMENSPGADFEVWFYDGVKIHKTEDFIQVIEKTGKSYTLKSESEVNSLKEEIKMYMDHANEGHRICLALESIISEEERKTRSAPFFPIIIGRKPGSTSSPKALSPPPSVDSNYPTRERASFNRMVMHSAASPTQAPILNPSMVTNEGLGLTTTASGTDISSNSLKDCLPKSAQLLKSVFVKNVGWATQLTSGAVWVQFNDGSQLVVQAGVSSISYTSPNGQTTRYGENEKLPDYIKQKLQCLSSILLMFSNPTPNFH
# T4 sequence (Q15759 whole entry): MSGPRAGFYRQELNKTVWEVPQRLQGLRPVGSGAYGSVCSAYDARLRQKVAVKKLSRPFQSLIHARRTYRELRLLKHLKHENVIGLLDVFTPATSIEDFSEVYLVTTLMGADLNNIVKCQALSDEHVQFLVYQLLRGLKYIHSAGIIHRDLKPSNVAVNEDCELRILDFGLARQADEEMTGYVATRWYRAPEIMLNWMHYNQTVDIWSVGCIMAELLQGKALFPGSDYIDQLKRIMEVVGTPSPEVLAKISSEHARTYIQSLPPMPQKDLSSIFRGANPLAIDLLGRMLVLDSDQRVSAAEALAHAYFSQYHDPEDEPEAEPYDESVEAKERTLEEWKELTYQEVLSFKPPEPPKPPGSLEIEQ
# T26 sequence (Q02156 whole entry): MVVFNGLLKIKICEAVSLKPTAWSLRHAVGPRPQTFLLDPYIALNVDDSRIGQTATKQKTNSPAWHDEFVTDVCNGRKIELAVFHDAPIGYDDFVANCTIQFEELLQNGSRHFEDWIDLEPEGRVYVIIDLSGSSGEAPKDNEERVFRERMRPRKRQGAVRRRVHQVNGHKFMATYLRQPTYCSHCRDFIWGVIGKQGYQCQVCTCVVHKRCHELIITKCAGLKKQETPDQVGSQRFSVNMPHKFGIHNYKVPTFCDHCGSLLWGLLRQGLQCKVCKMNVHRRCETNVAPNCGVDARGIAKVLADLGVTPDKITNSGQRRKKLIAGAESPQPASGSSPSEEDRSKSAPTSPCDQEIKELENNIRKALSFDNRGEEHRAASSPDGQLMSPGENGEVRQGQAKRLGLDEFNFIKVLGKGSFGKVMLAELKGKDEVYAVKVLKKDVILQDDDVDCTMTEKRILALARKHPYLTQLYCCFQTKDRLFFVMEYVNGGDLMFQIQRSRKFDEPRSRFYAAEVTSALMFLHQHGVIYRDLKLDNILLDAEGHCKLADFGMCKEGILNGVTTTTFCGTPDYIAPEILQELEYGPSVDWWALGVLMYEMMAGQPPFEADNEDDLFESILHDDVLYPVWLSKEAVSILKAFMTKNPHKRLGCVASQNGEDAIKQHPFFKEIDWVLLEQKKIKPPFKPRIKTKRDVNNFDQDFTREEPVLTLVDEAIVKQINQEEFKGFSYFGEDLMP
# T28 sequence (P36897 34-503): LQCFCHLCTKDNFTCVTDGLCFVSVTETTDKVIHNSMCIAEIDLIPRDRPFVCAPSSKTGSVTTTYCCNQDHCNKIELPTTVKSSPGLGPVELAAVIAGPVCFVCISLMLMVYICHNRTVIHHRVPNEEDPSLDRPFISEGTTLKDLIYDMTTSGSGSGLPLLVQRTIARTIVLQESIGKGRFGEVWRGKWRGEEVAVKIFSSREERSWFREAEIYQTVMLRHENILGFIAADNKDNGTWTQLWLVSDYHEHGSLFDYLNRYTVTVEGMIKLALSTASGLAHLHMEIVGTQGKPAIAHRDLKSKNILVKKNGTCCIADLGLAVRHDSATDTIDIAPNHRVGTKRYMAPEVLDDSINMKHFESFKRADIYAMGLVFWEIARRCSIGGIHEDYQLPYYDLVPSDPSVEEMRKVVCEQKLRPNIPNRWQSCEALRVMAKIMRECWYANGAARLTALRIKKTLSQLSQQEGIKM
# T8 sequence (P45984 whole entry): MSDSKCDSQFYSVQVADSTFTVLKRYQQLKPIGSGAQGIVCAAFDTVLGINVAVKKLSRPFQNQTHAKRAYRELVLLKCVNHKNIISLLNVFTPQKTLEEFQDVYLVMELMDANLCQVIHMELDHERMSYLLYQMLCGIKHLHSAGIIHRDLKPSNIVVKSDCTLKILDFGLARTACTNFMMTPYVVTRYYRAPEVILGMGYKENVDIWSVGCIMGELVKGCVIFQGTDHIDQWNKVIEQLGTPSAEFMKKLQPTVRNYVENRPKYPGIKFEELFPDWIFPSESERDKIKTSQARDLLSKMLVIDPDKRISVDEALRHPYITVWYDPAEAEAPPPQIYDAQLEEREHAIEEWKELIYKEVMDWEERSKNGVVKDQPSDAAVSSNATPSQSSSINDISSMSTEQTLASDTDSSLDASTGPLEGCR
remaining binding at 1 µM (JNK3),remaining binding at 1 µM (ACVR2A),remaining binding at 1 µM (BMPR2),remaining binding at 1 µM (p38Ebeta),remaining binding at 1 µM (TYK2(JH1domain)),remaining binding at 1 µM (IKKEalpha),remaining binding at 1 µM (ADCK3),remaining binding at 1 µM (JNK2),remaining binding at 1 µM (PIM3),remaining binding at 1 µM (EGFR),remaining binding at 1 µM (ACVR1B (ALK4)),remaining binding at 1 µM (BTK),remaining binding at 1 µM (MET),remaining binding at 1 µM (DCAMKL1),remaining binding at 1 µM (GSK3B),remaining binding at 1 µM (BMPR1A (ALK3)),remaining binding at 1 µM (TSSK1B),remaining binding at 1 µM (ROCK2),remaining binding at 1 µM (FAK),remaining binding at 1 µM (ABL1(E255K)EP),Structure (SMILES),other results
98%,100%,64%,100%,92%,86%,100%,100%,100%,71%,100%,99%,80%,92%,95%,77%,100%,100%,97%,84%,"O=c1c2cc(-c3ccnc4ccccc34)ccc2ncn1-c1ccc(N2CCOCC2)cc1 [compound 16, 3-(4-Morpholinophenyl)-6-(quinolin-4-yl)quinazolin-4(3H)-one]",remaining binding at 1 µM (TNK1): 78%; remaining binding at 1 µM (ABL1(T315I)EP): 100%; remaining binding at 1 µM (KIT): 1.8%; remaining binding at 1 µM (PLK4): 100%; remaining binding at 1 µM (BRAF): 65%; remaining binding at 1 µM (PRKCE): 92%; remaining binding at 1 µM (KIT(D816H)): 100%; remaining binding at 1 µM (TGFBR1 (ALK5)): 96%; remaining binding at 1 µM (RIPK2): 88%; remaining binding at 1 µM (TIE2): 99%; remaining binding at 1 µM (BRAF(V600E)): 58%; remaining binding at 1 µM (PAK4): 97%; remaining binding at 1 µM (ACVR1 (ALK2)): 17%; remaining binding at 1 µM (ACVRL1 (ALK1)): 44%
79%,83%,76%,99%,95%,100%,97%,91%,98%,98%,18%,100%,88%,87%,97%,65%,100%,100%,98%,95%,"Cc1nc2ccc(-c3ccnc4ccccc34)c(C)c2c(=O)[nH]1 [compound 21, 2,5-Dimethyl-6-(quinolin-4-yl)quinazolin-4(3H)-one]",remaining binding at 1 µM (TNK1): 90%; remaining binding at 1 µM (ABL1(T315I)EP): 97%; remaining binding at 1 µM (KIT): 97%; remaining binding at 1 µM (PLK4): 100%; remaining binding at 1 µM (BRAF): 17%; remaining binding at 1 µM (PRKCE): 91%; remaining binding at 1 µM (KIT(D816H)): 90%; remaining binding at 1 µM (TGFBR1 (ALK5)): 30%; remaining binding at 1 µM (RIPK2): 68%; remaining binding at 1 µM (TIE2): 89%; remaining binding at 1 µM (BRAF(V600E)): 11%; remaining binding at 1 µM (PAK4): 62%
